Data reported in patent US11260100B2, “Compositions targeting the interaction domain between p27Kip1 and Brk and methods of use thereof to inhibit p27 Y phosphorylation and cdk4 activity” (The Research Foundation for the State University of New York, priority 2014, dated 2022).

Assays:
[1] = tested on: MDA MB-468 cells; experiment: PD0332991 inhibitor treatment, proliferation by cell counting; format: cell-based; conditions: Homo sapiens, 48 h post treatment, read-out: IC50 (concentration needed to inhibit proliferation by 50%)
Method: (§1) Immunoprecipitation with IgG served as a negative control (FIG. 6C). DNA with Hoechst stain is in blue and is merged with red and green staining (FIG. 6D). (FIG. 6E) Cdk4 was immunoprecipitated from the lysates and recombinant Rb was added to perform an in vitro kinase assay in the presence of ATP Immunoblot analysis was performed to probe for Rb, Ser780 pRb and cdk4 Immunoprecipitation with IgG served as a negative control. (FIG. 6F) Cells were treated with different concentrations of PD0332291 or DMSO as a control at Day 2. Total cell numbers were analyzed by counting 24 and 48 hours post treatment to determine IC50 values. (FIG. 6G) Cells were treated with different concentration of PD032291 or DMSO and analyzed by PI staining and FACS analysis. % G1 content is plotted.
(§2) The PCR fragments were ligated to the T7pGEMEX human His-p27 or T7pGEMEX human Flag-p27 plasmid for expression in E. coli. Mutants Y74F, Y88F, and Y88/89F were previously described (12). Flag-tagged p27 mutants were purified by Flag-immunoprecipitation with Flag antibody (M-2, Sigma F-18C9) and eluted with Flag peptide (Sigma F-4799) according to manufacturer's protocol. His-tagged p27 mutants were purified by FPLC via his-trap affinity chromatography (His-Trap HP, GE Healthcare 71-5247-01). The affinity column was stripped according to manufacturer's protocol, then washed with 5 column volumes of 100 mM CoCl2. The crude material was applied with a loading buffer consisting of 6 M urea, 500 mM NaCl, 50 mM Tris-HCl, pH 7.5 and 20% glycerol. The material was washed with 500 mM NaCl, 50 mM Tris-HCl, pH 7.5 and 10% glycerol. The purified material was eluted with 500 mM imidazole,20 mM Hepes pH 7.4 and 1 M KCl. The protein was then dialyzed overnight in a solution of 25 mM Hepes pH 7.7, 150 mM NaCl, 5 mM MgCl2 and 0.05% NP40.

[2] = tested on: Mock MCF7 cells; experiment: as above; format: cell-based; conditions: Homo sapiens, 48 h post treatment, read-out: IC50 (concentration needed to inhibit proliferation by 50%)
Method: as §1, §2

[3] = tested on: MCF10A; experiment: as above; format: cell-based; conditions: Homo sapiens, MCF-10A, 48 h post treatment, read-out: IC50 (concentration needed to inhibit proliferation by 50%)
Method: as §1, §2

[4] = tested on: MCF7 WT Brk expressing cells; experiment: as above; format: cell-based; conditions: Homo sapiens, 48 h post treatment, read-out: IC50 (concentration needed to inhibit proliferation by 50%)
Method: as §1, §2

[5] = tested on: MCF7-ALT cells; experiment: Long-term proliferation arrest at IC100 (FIG. 15A); format: cell-based, human; conditions: IC100 Palbociclib, doxycycline induced ALT, replenished every two days
Method: FIGS. 15A-15C: ALT and PD treatment increases senescence, a clinical goal. FIG. 15A: MCF7-ALT cells were treated with IC100 concentration of Palbociclib (PD) or doxycycline to induce ALT. Drugs were replenished every two days and proliferation was determined by cell counting as indicated. Proliferation rates were standardized to the rate of proliferation seen in DMSO treated cells (control). PD treated cells were arrested for 10 days, before escape (proliferation) was detected. ALT expressing cells were arrested for 18 days before escape (proliferation) was detected. ALT expressing and PD treated cells were arrested for 30 days, with no escape detected. […] Proliferation was assessed by counting. […] Viability was measured by trypan blue staining and the ALT expressing, PD treated cells that weren't growing were viable. […]
MCF7-ALT cells were treated with a IC100 concentration of Palbociclib (PD) or doxycycline to induce ALT. Drugs were replenished every two days and proliferation was determined by cell counting as indicated. […] PD treated cells were arrested for 10 days, before escape (proliferation) was detected. ALT expressing cells were arrested for 18 days before escape (proliferation) was detected. ALT expressing and PD treated cells were arrested for 30 days, with no escape detected. […] Proliferation was assessed by counting. […]

[6] = biological target: T1, cdk2 (Homo sapiens, UniProt P24941); experiment: Immunoblot of cdk2T160 as measure of activated cdk2 (FIG. 10); format: cell-based; conditions: MCF7, drugs at IC50
T1 construct: added to or expressed in MCF7 breast cancer cells on day 2 post plating; endogenous in cells; host or cells: MCF7 (ALT-MCF7 tetracycline-inducible line)
Method: FIG. 10: ALT BRK inhibits both CDK4 and CDK2. ALT, Palbociclib alone or in combination were added to or expressed in MCF7 breast cancer cells on day 2 post plating. Drugs were added at their IC50 concentration, based on previous results. ALT is expressed from an ALT-MCF7 tetracycline inducible cell line generated in the Blain lab. When tetracycline is added to the cell culture media, ALT is expressed in these cells. Vector: no tetracycline was added, so no ALT induction was detected. Drugs and media were replaced every two days. Cells were harvested every two days, lysed and used in immunoblot analysis. Actin: loading control. pRBser780 is a phospho-specific antibody that recognizes sites phosphorylated by cdk4, so is a measure of active cdk4. cdk2T160 recognizes a required phosphorylation event on residue […] and is a measure of activated cdk2.
Additional experiments were performed assessing activity of Brk in combination with Palbociclib. The data presented in FIGS. 9A and 9B reveal that Palbociclib and Brk inhibit proliferation for 2 days, and then resistance is observed (proliferation increases). Alt maintained arrest for roughly 10 days (50% inhibition of proliferation is detected). […] Alt-Brk/Palbociclib combination leads to a more durable cell cycle arrest. Mono therapy treated cells start to become resistant between day 8-10. […]

IC50 [4]: > 600 nM
cdk2 activity (cdk2T160) [6]: does not inhibit cdk2
SMILES: CC(=O)c1c(C)c2cnc(Nc3ccc(N4CCNCC4)cn3)nc2n(C2CCCC2)c1=O [PD0332991]
IC50 [1]: 350 nM
IC50 [2]: 150 nM
IC50 [3]: 110 nM
time arrested before escape (proliferation) [5]: 10 days
